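Interpolation was linear, between the two tested concentrations surrounding the appropriate level; five concentrations were tested over 48 hours in 96-well plates. At the GI50, growth is halved. TGI: concentration producing complete growth inhibition.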
Experiments:
Test in all cases: NCI-60 cell line screen, 48 h
HCC-2998 colon = tested on: HCC-2998 colon
SF-539 CNS = tested on: SF-539 CNS
UACC-257 melanoma = tested on: UACC-257 melanoma
HOP-62 NSCLC = tested on: HOP-62 NSCLC
U251 CNS = tested on: U251 CNS
KM12 colon = tested on: KM12 colon
M14 melanoma = tested on: M14 melanoma
A549 NSCLC = tested on: A549 NSCLC
MDA-MB-435 = tested on: MDA-MB-435
OVCAR-8 ovarian = tested on: OVCAR-8 ovarian
K-562 leukemia = tested on: K-562 leukemia
UO-31 renal = tested on: UO-31 renal
SK-MEL-2 melanoma = tested on: SK-MEL-2 melanoma
IGROV1 ovarian = tested on: IGROV1 ovarian
HS 578T breast = tested on: HS 578T breast
SW-620 colon = tested on: SW-620 colon
CAKI-1 renal = tested on: CAKI-1 renal
SR leukemia = tested on: SR leukemia
DU-145 prostate = tested on: DU-145 prostate
EKVX NSCLC = tested on: EKVX NSCLC
HOP-92 NSCLC = tested on: HOP-92 NSCLC
A498 renal = tested on: A498 renal
NCI-H226 lung = tested on: NCI-H226 lung
TK-10 renal = tested on: TK-10 renal
SK-MEL-28 melanoma = tested on: SK-MEL-28 melanoma
T-47D breast = tested on: T-47D breast
MOLT-4 leukemia = tested on: MOLT-4 leukemia
786-0 renal = tested on: 786-0 renal
PC-3 prostate = tested on: PC-3 prostate
MDA-MB-231 breast = tested on: MDA-MB-231 breast
HCT-116 colon = tested on: HCT-116 colon
HL-60(TB) leukemia = tested on: HL-60(TB) leukemia
SK-MEL-5 melanoma = tested on: SK-MEL-5 melanoma
HCT-15 colon = tested on: HCT-15 colon
RPMI-8226 leukemia = tested on: RPMI-8226 leukemia
NCI-H460 lung = tested on: NCI-H460 lung
RXF 393 renal = tested on: RXF 393 renal
SNB-75 CNS = tested on: SNB-75 CNS
SNB-19 CNS = tested on: SNB-19 CNS
CCRF-CEM leukemia = tested on: CCRF-CEM leukemia
SK-OV-3 ovarian = tested on: SK-OV-3 ovarian
ACHN renal = tested on: ACHN renal
SN12C renal = tested on: SN12C renal
NCI/ADR-RES ovarian = tested on: NCI/ADR-RES ovarian
NCI-H23 lung = tested on: NCI-H23 lung
HT29 colon = tested on: HT29 colon
LOX IMVI melanoma = tested on: LOX IMVI melanoma
OVCAR-5 ovarian = tested on: OVCAR-5 ovarian
SF-268 CNS = tested on: SF-268 CNS
MCF7 breast = tested on: MCF7 breast
OVCAR-3 ovarian = tested on: OVCAR-3 ovarian
NCI-H522 lung = tested on: NCI-H522 lung
MALME-3M melanoma = tested on: MALME-3M melanoma
OVCAR-4 ovarian = tested on: OVCAR-4 ovarian
COLO 205 colon = tested on: COLO 205 colon
SF-295 CNS = tested on: SF-295 CNS
BT-549 breast = tested on: BT-549 breast
UACC-62 melanoma = tested on: UACC-62 melanoma

In the case of `CN(C)C(=O)Nc1nc2cc(Cl)c(Cl)cc2[nH]1`, the GI50 (HCC-2998 colon) is reported as 2500 nM, the TGI (HCC-2998 colon) is reported as > 47100 nM and the GI50 (SF-539 CNS) is reported as 537 nM. The TGI (SF-539 CNS) was 6050 nM, the GI50 (UACC-257 melanoma) was > 100000 nM and the TGI (UACC-257 melanoma) was > 100000 nM. The GI50 (HOP-62 NSCLC) was 3840 nM, the TGI (HOP-62 NSCLC) was > 50700 nM and the GI50 (U251 CNS) was 636 nM. For the same compound, the TGI (U251 CNS) was > 51100 nM, the GI50 (KM12 colon) was 404 nM and the TGI (KM12 colon) was > 35700 nM. For the same compound, the GI50 (M14 melanoma) was 603 nM, the GI50 (A549 NSCLC) was 704 nM and the TGI (A549 NSCLC) was > 25400 nM. For the same compound, the GI50 (MDA-MB-435) was 200 nM, the TGI (MDA-MB-435) was 3850 nM and the GI50 (OVCAR-8 ovarian) was 2460 nM. For the same compound, the TGI (OVCAR-8 ovarian) was > 60400 nM, the GI50 (K-562 leukemia) was 410 nM and the TGI (K-562 leukemia) was > 33800 nM. For the same compound, the GI50 (UO-31 renal) was 5530 nM, the TGI (UO-31 renal) was > 100000 nM and the GI50 (SK-MEL-2 melanoma) was 4550 nM. The TGI (SK-MEL-2 melanoma) was > 49100 nM, the GI50 (IGROV1 ovarian) was 1150 nM and the TGI (IGROV1 ovarian) was > 100000 nM. The GI50 (HS 578T breast) was 1260 nM, the TGI (HS 578T breast) was > 55100 nM and the GI50 (SW-620 colon) was 476 nM. The TGI (SW-620 colon) was > 100000 nM, the GI50 (CAKI-1 renal) was 525 nM and the TGI (CAKI-1 renal) was > 23500 nM. It also gave a GI50 (SR leukemia) of 222 nM, a GI50 (DU-145 prostate) of 2020 nM and a TGI (DU-145 prostate) of 24900 nM. The GI50 (EKVX NSCLC) was 5300 nM, the TGI (EKVX NSCLC) was > 100000 nM and the GI50 (HOP-92 NSCLC) was 16100 nM. The TGI (HOP-92 NSCLC) was > 100000 nM, the GI50 (A498 renal) was 487 nM and the GI50 (NCI-H226 lung) was 2830 nM. The TGI (NCI-H226 lung) was > 100000 nM, the GI50 (TK-10 renal) was 4710 nM and the TGI (TK-10 renal) was > 100000 nM. The GI50 (SK-MEL-28 melanoma) was 8630 nM, the TGI (SK-MEL-28 melanoma) was > 100000 nM and the GI50 (T-47D breast) was 655 nM. The TGI (T-47D breast) was > 100000 nM, the GI50 (MOLT-4 leukemia) was 1010 nM and the TGI (MOLT-4 leukemia) was > 70400 nM. The GI50 (786-0 renal) was 1210 nM, the TGI (786-0 renal) was > 100000 nM and the GI50 (PC-3 prostate) was 566 nM. The TGI (PC-3 prostate) was > 51800 nM, the GI50 (MDA-MB-231 breast) was 3420 nM and the TGI (MDA-MB-231 breast) was > 100000 nM. The GI50 (HCT-116 colon) was 463 nM, the TGI (HCT-116 colon) was > 35000 nM and the GI50 (HL-60(TB) leukemia) was 241 nM. The GI50 (SK-MEL-5 melanoma) was 441 nM, the TGI (SK-MEL-5 melanoma) was > 100000 nM and the GI50 (HCT-15 colon) was 546 nM. The TGI (HCT-15 colon) was > 100000 nM, the GI50 (RPMI-8226 leukemia) was 1370 nM and the TGI (RPMI-8226 leukemia) was > 100000 nM. For the same compound, the GI50 (NCI-H460 lung) was 440 nM, the TGI (NCI-H460 lung) was 30000 nM and the GI50 (RXF 393 renal) was 1630 nM. For the same compound, the TGI (RXF 393 renal) was > 28700 nM, the GI50 (SNB-75 CNS) was 3080 nM and the TGI (SNB-75 CNS) was > 35200 nM. The GI50 (SNB-19 CNS) was 11600 nM, the TGI (SNB-19 CNS) was > 100000 nM and the GI50 (CCRF-CEM leukemia) was 953 nM. For the same compound, the TGI (CCRF-CEM leukemia) was > 100000 nM, the GI50 (SK-OV-3 ovarian) was 1090 nM and the TGI (SK-OV-3 ovarian) was > 56600 nM. For the same compound, the GI50 (ACHN renal) was 3110 nM, the TGI (ACHN renal) was > 100000 nM and the GI50 (SN12C renal) was 1360 nM. The TGI (SN12C renal) was > 100000 nM, the GI50 (NCI/ADR-RES ovarian) was 507 nM and the TGI (NCI/ADR-RES ovarian) was 9370 nM. The GI50 (NCI-H23 lung) was 2070 nM, the TGI (NCI-H23 lung) was > 66500 nM and the GI50 (HT29 colon) was 393 nM. For the same compound, the TGI (HT29 colon) was > 32500 nM, the GI50 (LOX IMVI melanoma) was 1870 nM and the TGI (LOX IMVI melanoma) was > 100000 nM. For the same compound, the GI50 (OVCAR-5 ovarian) was 19800 nM, the TGI (OVCAR-5 ovarian) was > 100000 nM and the GI50 (SF-268 CNS) was 2890 nM. For the same compound, the TGI (SF-268 CNS) was > 100000 nM, the GI50 (MCF7 breast) was 367 nM and the TGI (MCF7 breast) was > 100000 nM. The GI50 (OVCAR-3 ovarian) was 393 nM, the TGI (OVCAR-3 ovarian) was 1940 nM and the GI50 (NCI-H522 lung) was 380 nM. For the same compound, the TGI (NCI-H522 lung) was 4140 nM, the GI50 (MALME-3M melanoma) was 3220 nM and the TGI (MALME-3M melanoma) was 87300 nM. For the same compound, the GI50 (OVCAR-4 ovarian) was 1610 nM, the TGI (OVCAR-4 ovarian) was > 100000 nM and the GI50 (COLO 205 colon) was 661 nM. It also gave a TGI (COLO 205 colon) of 5080 nM, a GI50 (SF-295 CNS) of 603 nM and a TGI (SF-295 CNS) of 39100 nM. For the same compound, the GI50 (BT-549 breast) was 2790 nM, the TGI (BT-549 breast) was > 100000 nM and the GI50 (UACC-62 melanoma) was 382 nM. The TGI (UACC-62 melanoma) was > 100000 nM.

Reference: PubChem BioAssay (NCI)
